Data on 35 compounds can be found in a melting point compilation (Tetko et al.; mined from patent text by program, amines drawn as free bases though some values may be those of a salt).

Broadly, the melting point is the temperature, or range, at which the solid turns liquid. `COc1cc(CC(=O)O)ccc1NC(=O)Nc1ccccc1C(F)(F)F` came in with a melting point of 218 to 220 °C.

`O=C(Cc1ccc2ccccc2n1)NC1CCC2(O)C3Cc4ccc(O)c5c4C2(CCN3CC2CC2)C1O5` (stereo not given): the melting point fell in the range of 212 to 214 °C.

With `CCCCCCCCS(=O)(=O)ON=C(C#N)c1cccs1`, the melting point fell in the range of 77 to 82 °C.

`Cc1cnc2c(N)ccc(C)c2c1Cl` yielded a melting point of 120 to 122 °C.

In turn, `CC1(C)Oc2c(N)c(Cl)cc(Cl)c2C1=O` returned a melting point of 168 to 170 °C.

On to `Fc1ccc2c(c1)C(OCc1c(F)cccc1F)C(Cn1ccnc1)S2` (stereo not given), for which the melting point fell in the range of 167 to 168 °C.

Turning to `COC(=O)CNC(=O)NC(CSC(C)=O)Cc1ccccc1` (stereo not given), the melting point came to 102 °C.

`Cc1nc(N)nc(N)c1C#CCc1ccccc1` displayed a melting point of 145 to 149 °C.

`CC1(NC(=O)C(F)(F)F)CN(c2c(F)cc3c(=O)c(C(=O)O)cn(CCF)c3c2F)C1` had a melting point of 205 to 215 °C.

For `O=C(O)CCc1oc(Sc2nncn2-c2ccccc2)nc1-c1ccc(Cl)cc1`, the melting point lay within 122 to 123 °C.

Turning to `COc1nc(OC)c(C(C)C)c(C(=O)c2cc(C)cc(Cl)c2)n1`, the melting point lay in the range of 119 to 120 °C.

As to `Cc1nc(NC2CC2)ccc1N1CCCn2c1nc1c(Cl)ccc(C(OC(F)F)C(F)(F)F)c12` (stereo not given), the melting point lay within 168 to 170 °C.

With `CC(C)n1nc(C(Cl)C(=O)c2cccc(F)c2)ccc1=O` (stereo not given), the melting point lay within 65.5 to 66.5 °C.

For the compound `CCCc1nc(SC(F)F)c(C(=O)O)n1Cc1ccc(-c2ccccc2S(=O)(=O)NC(=O)NCc2ccc(F)cc2)cc1`, the melting point came out at 122 °C.

With `CS(=O)(=O)Nc1cccc(Nc2nc(OCC3CCCCC3)c3nc[nH]c3n2)c1`, the melting point is 169 to 172 °C.

Regarding `CCc1c(-c2ccc(OCc3ccccc3)cc2)c2c(COC)cc3c(OCc4ccccc4)ccc1n32`, the melting point lay in the range of 127 to 130 °C.

Compound `Nc1ccc2c(c1)C(=O)N(c1ccc3ccsc3c1)C2` yielded a melting point of 233 to 236 °C.

Turning to `CC(C(=O)O)c1ccc(-c2ccccc2F)cc1` (stereo not given), the melting point fell in the range of 94.5 to 97 °C.

The compound `Cc1ccc(NC(=O)OC2CN3CCC2CC3)cc1` (stereo not given) displayed a melting point of 186 to 188 °C.

Turning to `COc1c(C(=O)O)nnn1Cc1ccccc1Cl`, the melting point fell in the range of 130 to 135 °C.

`CCOC(=O)c1[nH]c(C)c(C)c1OCCCCCl` showed a melting point of 58 to 60 °C.

As for `NCC1Cc2c(C(F)(F)F)ccc(Cl)c2O1` (stereo not given), the melting point was above 250 °C.

`Cc1cc(C)c([N+](=O)[O-])cc1-n1c(C)cc(C)c(C#N)c1=O`: the melting point fell in the range of 262 to 263 °C.

Compound `CCOC(=O)/C=C(C)/C=C/C=C(C)/C=C/c1c(C)coc1C` gave a melting point of 98 to 101 °C.

`CCOC(=S)NC1(N=NC(C)(C)C)CCCCC1` registered a melting point of 57 to 62 °C.

In turn, `CCc1nc2cc(Cl)c(Cl)cc2n1C1CC(CO)C(O)C1O` (stereo not given) gave a melting point of 191 to 193 °C.

`O=c1[nH]c2ccc(Cl)cc2c2c1[nH]c1ccccc12` had a melting point of 325 to 327 °C.

For the compound `CCn1ncc(-c2ccc3c(c2)c(C2=CCN(CCN4CCNC4=O)CC2)cn3-c2ccc(F)cc2)n1`, the melting point was 143 to 145 °C.

Take `COc1cc(C(C)=O)ccc1OCCCN1CCN(n2ncc3ccc(F)cc32)CC1`: the melting point was 135 to 137 °C.

`COc1ccc(C2=NN(Cc3ccc(C(=O)O)cc3)C(=O)[C@H]3CC=CC[C@@H]23)cc1OC` (relative stereo): the melting point fell in the range of 192 to 193 °C.

The compound `CCOC(=O)C(=CNC1CC1)C(=O)c1ccc(F)c(Cl)c1F` returned a melting point of 101 to 104 °C.

As for `Cc1cc(-c2ccc(Cl)cc2)n(-c2ccc(S(N)(=O)=O)cc2)c1`, the melting point lay within 196 to 198 °C.

Take `CCOC(=O)COc1cccc2c1CCc1sc(O)nc1-2`: the melting point fell in the range of 74 to 75 °C.

In turn, `COCc1cc(-c2ncc(C(F)(F)F)cc2Cl)ccc1Cl` had a melting point of 52 to 54 °C.

Regarding `CCSc1c(C(F)(F)F)nn(-c2c(Cl)cc(C(F)(F)F)cc2Cl)c1N`, the melting point worked out at 116 °C.
